Results reported in patent US20210198256A1, “COMPOUNDS FOR THE DEGRADATION OF BRD9 OR MTH1” (C4 Therapeutics, Inc., priority 2018, published 2021).

Test system: SMARTCAR-MTH1-wt-HiBiT (Jurkat.7 cells)
Assay: HiBit Lytic Assay (HiBit DC50, MTH1 degraders of Table 2)
Format: cell-based, human
Settings: Jurkat.7 SMARTCAR-MTH1-wt-HiBiT cells, compound treatment time 4 hr, 11-point half log dose response
Protocol: Example 3. HiBit Lytic Assay
• Compound is made at 10 mM, half log dilution, 11 points. • MDR plates can also be ordered from Frontier with same format. • 1. Barcode a 384LDV plate (384-well Low Dead Volume Microplate, Labcyte LP-0200) (Echo compatible) on the left side. • 2. Transfer 13.6 μL of 10 mM compound into column 1 of LDV plate (Labcyte). • 3. Fill column 2-11 and column 23 of MDR plate with 9.30 μL of DMSO. • 4. Serial dilute 3.16 fold from column 1 to 2 by transferring 4.30 μL from column 1 to column 2, and so on to column 11. *Change tip in every dilution to prevent compound carryover effect! • 5. Seal the plate with Plate Sealer, then store the MDR plate at room temperature for short term storage and in −20° C. for long term storage.
• Cells are treated with 30 nL of each compound at 10 mM, half log dilution, 11 points with final concentration of 1000 nM or 833 nM, half log dilution, 11 points, in duplicates. Final DMSO concentration is 0.1%. • 1. Barcode the plates made on the left side and label the plates with silver marker. • 2. Dispense with the following scheme: • a. 30 nL of compound into corresponding wells in cell plates via Echo550 with “MDR32_HiBiT16_30 nL”. Top concentration will be 1000 nM. • 3. Seal the plate with Plate Sealer.
• Cells are dispensed at density specified in Cell Line Table in 384-well microplate. • 1. Culture cells to between 50-80% of confluence in sterile culture flasks of appropriate size. • 2. For Adherent Cell Lines: • a. Aspirate off growth media in culture flask, and wash off the Phenol Red media with 5 mL of 1×PBS. • b. Add 5 mL of Trypsin to the cells, incubate at 37° C. for 5 minutes. • c. Add 5 mL of growth media to the trypsinzed cells, and resuspend. • 3. Remove 10 μL of cells, and resuspend the cells with 10 μL of Trypan Blue. Insert the solution to counting chamber slide, and count the cells via cell counter. • 4. Adjust the cell concentration to specified plating density, and strain the cells with cell strainer. • 5. Dispense the cells via E1-ClipTip™ Electronic Multichannel Pipettes or Multidrop™ Combi Reagent Dispenser with Standard tube dispensing cassette: • a. Prime the cassette with 10-20 mL of ddH2O. • b. Prime the cassette with 10-20 mL of cells. • c. Dispense the cells at low speed for 30 μL/well in Corning® 384 Well Low Flange Black Flat Bottom Polystyrene TC-Treated Microplate. • d. Wash the cassette with 10-20 mL of ddH2O, follow by 10-20 mL of 70% EtOH, then again with 10-20 mL of ddH2O. • 6. Incubate the plates at 37° C.×compound treatment time.
• 1. If not already, bring Nano-Glo® HiBiT Lytic Buffer to room temperature. • 2. Determine the amount of reagent needed. A volume of reagent equal to the volume of media in the well should be added (i.e. 30 μL of cells will need 30 μL of HiBiT Lytic reagent). • 3. Into a given volume of buffer, dilute the substrate 50-fold and the LgBiT protein 100-fold. For example, to make 10 ml of reagent, add the following: • 10 ml Nano-Glo® HiBiT Lytic Buffer • 200 μl Nano-Glo® HiBiT Lytic Substrate • 100 μl LgBiT Protein • The reagent should be reconstituted immediately before use. However, once reconstituted, it should take about 4 hours for the activity to decrease 10%. • 4. Cool down the cell plate to room temperature for 10-15 minutes without lid. • 5. Dispense the HiBiT Lytic Reagent via E1-ClipTip™ Electronic Multichannel Pipettes or Multidrop™ Combi Reagent Dispenser with Standard tube dispensing cassette: • a. Prime the cassette with 10-20 mL of ddH2O. • b. Prime the cassette with 10-20 mL of CTG 2.0. • c. Dispense the HiBiT Lytic Reagent at medium speed for 30 μL/well in cell plate to column 1-23 (column 24 will be used as plate background). • d. Wash the cassette with 10-20 mL of ddH2O, follow by 10-20 mL of 70% EtOH, then again with 10-20 mL of ddH2O. • 6. Incubate the cell plate at room temperature for 10 minutes without lid. • 7. […]

DC50 [nM]	Structure (SMILES)
< 100	CNC(=O)c1cnc2cc(OC)c(-c3ccc(C(=O)NCCCCNC(=O)C(C)Nc4cccc5c4C(=O)N(C4CCC(=O)NC4=O)C5=O)nc3)cc2c1Nc1ccccc1 (stereo in doubt) [Compound 384, 6-(6-((4-((2S)-2-((2-(2,6-dioxopiperidin-3-yl)-1,3-dioxoisoindolin-4-yl)amino)propanamido)butyl)carbamoyl)pyridin-3-yl)-7-methoxy-N-methyl-4-(phenylamino)quinoline-3-carboxamide]
< 100	NC(=O)c1cnc2ccc(-c3ccc(C(=O)NCCCCNC(=O)COc4cccc5c4C(=O)N(C4CCC(=O)NC4=O)C5=O)cc3)cc2c1Nc1ccccc1 (centres unmarked) [Compound 300, 4-anilino-6-[4-[4-[[2-[2-(2,6-dioxo-3-piperidyl)-1,3-dioxo-isoindolin-4-yl]oxyacetyl]amino]butylcarbamoyl]phenyl]quinoline-3-carboxamide]
< 100	CN(CC(=O)NCCCCNC(=O)c1ccc(-c2ccc3ncc(C(N)=O)c(Nc4ccccc4)c3c2)cc1)c1cccc2c1C(=O)N(C1CCC(=O)NC1=O)C2=O (centres unmarked) [Compound 301, 4-anilino-6-[4-[4-[[2-[[2-(2,6-dioxo-3-piperidyl)-1,3-dioxo-isoindolin-4-yl]-methyl-amino]acetyl]amino]butylcarbamoyl]phenyl]quinoline-3-carboxamide]
< 100	NC(=O)c1cnc2ccc(-c3ccc(C(=O)NCCCCNC(=O)CNc4cccc5c4C(=O)N(C4CCC(=O)NC4=O)C5=O)cc3)cc2c1Nc1ccccc1 (centres unmarked) [Compound 302, 6-(4-((4-(2-((2-(2,6-dioxopiperidin-3-yl)-1,3-dioxoisoindolin-4 yl)amino)acetamido)butyl)carbamoyl)phenyl)-4-(phenylamino)quinoline-3-carboxamide]
< 100	NC(=O)c1cnc2ccc(-c3ccc(C(=O)NCCCCNC(=O)CNc4cccc5c4CN(C4CCC(=O)NC4=O)C5=O)cc3)cc2c1Nc1ccccc1 (centres unmarked) [Compound 303, 4-anilino-6-[4-[4-[[2-[[2-(2,6-dioxo-3-piperidyl)-1-oxo-isoindolin-4-yl]amino]acetyl]amino]butylcarbamoyl]phenyl]quinoline-3-carboxamide]
< 100	NC(=O)c1cnc2ccc(-c3ccc(C(=O)NCCCNC(=O)COc4cccc5c4C(=O)N(C4CCC(=O)NC4=O)C5=O)cc3)cc2c1Nc1ccccc1 (centres unmarked) [Compound 306, 6-(4-((3-(2-((2-(2,6-dioxopiperidin-3-yl)-1,3-dioxoisoindolin-4-yl)oxy)acetamido)propyl)carbamoyl)phenyl)-4-(phenylamino)quinoline-3-carboxamide]
< 100	NC(=O)c1cnc2ccc(-c3ccc(C(=O)NCCCNC(=O)CNc4cccc5c4C(=O)N(C4CCC(=O)NC4=O)C5=O)cc3)cc2c1Nc1ccccc1 (centres unmarked) [Compound 307, 6-(4-((3-(2-((2-(2,6-dioxopiperidin-3-yl)-1,3-dioxoisoindolin-4-yl)amino)acetamido)propyl)carbamoyl)phenyl)-4-(phenylamino)quinoline-3-carboxamide]
< 100	NC(=O)c1cnc2ccc(-c3ccc(C(=O)N[C@H]4CC[C@@H](NC(=O)CNC(=O)COc5cccc6c5C(=O)N(C5CCC(=O)NC5=O)C6=O)CC4)cc3)cc2c1Nc1ccccc1 (some centres unmarked) [Compound 308, 6-(4-(((1s,4s)-4-(2-(2-((2-(2,6-dioxopiperidin-3-yl)-1,3-dioxoisoindolin-4-yl)oxy)acetamido)acetamido)cyclohexyl)carbamoyl)phenyl)-4-(phenylamino)quinoline-3-carboxamide]
< 100	NC(=O)c1cnc2ccccc2c1Nc1ccc(-c2ccc(C(=O)NCCCCNC(=O)COc3cccc4c3C(=O)N(C3CCC(=O)NC3=O)C4=O)cc2)cc1 (centres unmarked) [Compound 309, 4-[4-[4-[4-[[2-[2-(2,6-dioxo-3-piperidyl)-1,3-dioxo-isoindolin-4-yl]oxyacetyl]amino]butylcarbamoyl]phenyl]anilino]quinoline-3-carboxamide]
< 1000	NC(=O)c1cnc2ccc(N3CCN(C(=O)CCCCCNC(=O)COc4cccc5c4C(=O)N(C4CCC(=O)NC4=O)C5=O)CC3)cc2c1Nc1ccccc1 (centres unmarked) [Compound 310, 6-(4-(6-(2-((2-(2,6-dioxopiperidin-3-yl)-1,3-dioxoisoindolin-4-yl)oxy)acetamido)hexanoyl)piperazin-1-yl)-4-(phenylamino)quinoline-3-carboxamide]
< 1000	CN(CC(=O)NCCOCCNC(=O)c1ccc(-c2ccc3ncc(C(N)=O)c(Nc4ccccc4)c3c2)cc1)c1cccc2c1C(=O)N(C1CCC(=O)NC1=O)C2=O (centres unmarked) [Compound 311, 4-anilino-6-[4-[2-[2-[[2-[[2-(2,6-dioxo-3-piperidyl)-1,3-dioxo-isoindolin-4-yl]-methyl-amino]acetyl]amino]ethoxy]ethylcarbamoyl]phenyl]quinoline-3-carboxamide]
< 1000	CN(CC(=O)NCCCCCC(=O)N1CCC(c2ccc3ncc(C(N)=O)c(Nc4ccccc4)c3c2)CC1)c1cccc2c1C(=O)N(C1CCC(=O)NC1=O)C2=O (centres unmarked) [Compound 312, 4-anilino-6-[1-[6-[[2-[[2-(2,6-dioxo-3-piperidyl)-1,3-dioxo-isoindolin-4-yl]-methyl-amino]acetyl]amino]hexanoyl]-4-piperidyl]quinoline-3-carboxamide]
< 100	CNC(=O)c1cnc2ccc(-c3ccc(C(=O)NCCCCNC(=O)COc4cccc5c4C(=O)N(C4CCC(=O)NC4=O)C5=O)cc3)cc2c1Nc1ccccc1 (centres unmarked) [Compound 340, 4-anilino-6-[4-[4-[[2-[2-(2,6-dioxo-3-piperidyl)-1,3-dioxo-isoindolin-4-yl]oxyacetyl]amino]butylcarbamoyl]phenyl]-N-methyl-quinoline-3-carboxamide]
< 100	CNC(=O)c1cnc2ccc(-c3ccc(C(=O)NCCCC(=O)N4CCN(c5cccc6c5C(=O)N(C5CCC(=O)NC5=O)C6=O)CC4)cc3)cc2c1Nc1ccccc1 (centres unmarked) [Compound 343, 4-anilino-6-[4-[[4-[4-[2-(2,6-dioxo-3-piperidyl)-1,3-dioxo-isoindolin-4-yl]piperazin-1-yl]-4-oxo-butyl]carbamoyl]phenyl]-N-methyl-quinoline-3-carboxamide]
< 100	CNC(=O)c1cnc2cc(OC)c(-c3ccc(C(=O)NCCCCNC(=O)CNc4cccc5c4C(=O)N(C4CCC(=O)NC4=O)C5=O)cc3)cc2c1Nc1ccccc1 (centres unmarked) [Compound 344, 6-(4-((4-(2-((2-(2,6-dioxopiperidin-3-yl)-1,3-dioxoisoindolin-4-yl)amino)acetamido)butyl)carbamoyl)phenyl)-7-methoxy-N-methyl-4-(phenylamino)quinoline-3-carboxamide]
< 100	CNC(=O)c1cnc2cc(OC)c(-c3ccc(C(=O)NCCCCNC(=O)CN(C)c4cccc5c4C(=O)N(C4CCC(=O)NC4=O)C5=O)cc3)cc2c1Nc1ccccc1 (centres unmarked) [Compound 345, 6-(4-((4-(2-((2-(2,6-dioxopiperidin-3-yl)-1,3-dioxoisoindolin-4-yl)(methyl)amino)acetamido)butyl)carbamoyl)phenyl)-7-methoxy-N-methyl-4-(phenylamino)quinoline-3-carboxamide]
< 100	CNC(=O)c1cnc2ccc(-c3ccc(C(=O)NCCCCNC(=O)C(C)Nc4cccc5c4C(=O)N(C4CCC(=O)NC4=O)C5=O)cc3)cc2c1Nc1ccccc1 (centres unmarked) [Compound 346, 4-anilino-6-[4-[4-[2-[[2-(2,6-dioxo-3-piperidyl)-1,3-dioxo-isoindolin-4-yl]amino]propanoylamino]butylcarbamoyl]phenyl]-N-methyl-quinoline-3-carboxamide]
